One test has as its target AII receptor. Nature of the test: Angiotensin II receptor binding (displacement of 3H-AII). To be noted: read-out: Angiotensin II Receptor Binding IC50, Table 25, rat adrenal cortical microsomes, 2 nM 3H-AII, 1 hour, room temperature. On the procedure:
The assay was carried out according to the method described by [Glossmann et al., J. Biol. Chem., 249, 825 (1974)], but with some modifications. The reaction mixture contained rat adrenal cortical microsomes (source of AII receptor) in Tris buffer and 2 nM of ^3 H-AII with or without potential AII antagonist. This mixture was incubated for 1 hour at room temperature and the reaction was subsequently terminated by rapid filtration and rinsing through glass micro-fibre filter. Receptor-bound ^3 H-AII trapped in filter was quantitated by scintillation counting.
(§1) Compounds listed in Table 26 were tested in the same manner as described for Table 25, except that in the test for antihypertensive effects in renal hypertensive rats, the compounds were administered orally at 30 mg/kg and intravenously at 3 mg/kg.
Background: In a radioligand displacement assay an active substance lowers the binding of a labelled ligand.

Another test has as its system Renal Hypertensive Rats. Nature of the test: Antihypertensive effects in renal hypertensive rats.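 On all read-outs here: effective means a significant fall in blood pressure at the dose shown or below.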 In kind it is in vivo. To be noted: Rattus norvegicus, Table 25; for minimal effective dose at 100 mg/kg: oral, 100 mg/kg or less; for minimal effective dose at 10 mg/kg: intravenous, 10 mg/kg or less. On the procedure: This procedure increases blood pressure by increasing renin production with consequent elevation of AII levels. Compounds are administered orally at 100 mg/kg and/or intravenously via a cannula in the jugular vein at 10 mg/kg. Arterial blood pressure is continuously measured directly through a carotid artery cannula and recorded using a pressure transducer and a polygraph. Blood pressure levels after treatment are compared to pretreatment levels to determine the antihypertensive effects of the compounds (See Table 25).
as §1

Read-outs that look alike come from different tables or passages of the source.

The record followed here is patent publication US5138069A (E. I. Du Pont de Nemours and Company, priority 1988, dated 1992).

Consider `CCCCc1nc(CC(=O)OC)c(Cl)n1Cc1ccc(NC(=O)c2ccccc2C(=O)O)cc1` [Example 3, Methyl 2-butyl-1-[4-(2-carboxybenzamido)benzyl]-5-chloroimidazole-4-acetate], for which, at AII receptor (tested as sodium salt), the IC50 stood at 420 nM. In addition, the minimal effective dose at 100 mg/kg with Renal Hypertensive Rats (tested as sodium salt) is above 100 mg/kg.

As to `CCCCc1nc(Cl)c(CC(=O)OC)n1Cc1ccc(NC(=O)c2ccccc2-c2ccccc2C(=O)O)cc1` [Example 5], the IC50 on AII receptor (tested as sodium salt) came to 190 nM. Also, the minimal effective dose at 100 mg/kg in the test on Renal Hypertensive Rats (tested as sodium salt) is above 100 mg/kg.

`CCCCc1nc(Cl)c(CC(=O)OC)n1Cc1ccc(NC(=O)c2c(C(=O)O)cccc2[N+](=O)[O-])cc1` [Example 7]: on AII receptor, the IC50 was 420 nM. In the test with Renal Hypertensive Rats, this molecule displayed a minimal effective dose at 10 mg/kg below 10 mg/kg and a minimal effective dose at 100 mg/kg above 100 mg/kg.

Consider `CCCCc1nc(Cl)c(CC(=O)OC)n1Cc1ccc(NC(=O)c2c(Cl)ccc(Cl)c2C(=O)O)cc1` [Example 16], for which the concentration for half-maximal inhibition (IC50) at AII receptor amounted to 18 nM. Moreover, in the test with Renal Hypertensive Rats, the minimal effective dose at 10 mg/kg was below 10 mg/kg and the minimal effective dose at 100 mg/kg is above 100 mg/kg.

`CCCCc1nc(Cl)c(CC(=O)OC)n1Cc1ccc(NS(=O)(=O)C(F)(F)F)cc1` [Example 21, Methyl 2-butyl-4-chloro-1-[4-(trifluoromethylsulfonamido)benzyl]imidazole-5-acetate]: the IC50 on AII receptor (tested as sodium salt) was determined as 2100 nM. Further, in the test with Renal Hypertensive Rats (tested as sodium salt), the minimal effective dose at 10 mg/kg is below 10 mg/kg and the minimal effective dose at 100 mg/kg was above 100 mg/kg.

For the molecule `CCCCc1nc(Cl)c(Cc2nnn[nH]2)n1Cc1cccc(-c2nnn[nH]2)c1` [Example 26, 2-Butyl-4-chloro-5-[(1H-tetrazol-5-yl)methyl]-1-[3-(1H-tetrazol-5-yl)benzyl]imidazole], at AII receptor (tested as sodium salt), the IC50 was 3800 nM. Further, in the test with Renal Hypertensive Rats (tested as sodium salt), the minimal effective dose at 100 mg/kg was above 100 mg/kg.

Turning to `CCCCc1nc(Cl)c(Cc2nnn[nH]2)n1Cc1ccc(-c2nnn[nH]2)cc1` [Example 27, 2-Butyl-4-chloro-5-[(1H-tetrazol-5-yl)methyl]-1-[4-(1H-tetrazol-5-yl)benzyl]imidazole], on AII receptor (tested as sodium salt), the IC50 worked out at 1200 nM. For the same molecule, in the test on Renal Hypertensive Rats (tested as sodium salt), the minimal effective dose at 10 mg/kg was below 10 mg/kg and the minimal effective dose at 100 mg/kg was below 100 mg/kg.

With `CCCCc1nc(Cl)c(CC(=O)OC)n1Cc1ccc(N2C(=O)c3ccccc3C2=O)cc1` [Example 29, Methyl 2-butyl-4-chloro-1-(4-N-phthalimidobenzyl)imidazole-5-acetate], the IC50 on AII receptor was 3100 nM. In the test on Renal Hypertensive Rats, the minimal effective dose at 10 mg/kg was below 10 mg/kg and the minimal effective dose at 100 mg/kg is above 100 mg/kg.

On to `CCCCc1nc(Cl)c(CC(=O)OC)n1Cc1ccc(NC(=O)c2ccccc2NS(=O)(=O)C(F)(F)F)cc1` [Example 30, Methyl 2-butyl-4-chloro-1-[4-((N-trifluoromethanesulfonyl)anthranilamido)benzyl]-imidazole-5-acetate], for which, on AII receptor (tested as sodium salt), the IC50 is 390 nM. Also, in the test with Renal Hypertensive Rats (tested as sodium salt), the minimal effective dose at 10 mg/kg is below 10 mg/kg and the minimal effective dose at 100 mg/kg was below 100 mg/kg.

In the case of `CCCCc1nc(Cl)c(CC(=O)OC)n1Cc1ccc(NC(=O)c2cc(I)ccc2NS(=O)(=O)C(F)(F)F)cc1` [Example 35], the IC50 on AII receptor (tested as sodium salt) amounted to 3400 nM. For the same molecule, in the test on Renal Hypertensive Rats (tested as sodium salt), the minimal effective dose at 10 mg/kg is below 10 mg/kg and the minimal effective dose at 100 mg/kg is below 100 mg/kg.

With `CCCCc1nc(Cl)c(CC(=O)OC)n1Cc1ccc(NC(=O)c2cccc(C)c2NS(=O)(=O)C(F)(F)F)cc1` [Example 36], the 50% inhibitory concentration (IC50) at AII receptor (tested as sodium salt) is 190 nM. Further, in the test with Renal Hypertensive Rats (tested as sodium salt), the minimal effective dose at 10 mg/kg is below 10 mg/kg and the minimal effective dose at 100 mg/kg is above 100 mg/kg.

For `CCCCc1nc(Cl)c(CC(=O)OC)n1Cc1ccc(NC(=O)c2ccccc2NS(C)(=O)=O)cc1` [Example 51], on AII receptor, the IC50 worked out at 2300 nM. Further, in the test with Renal Hypertensive Rats, the minimal effective dose at 10 mg/kg is above 100 mg/kg and the minimal effective dose at 100 mg/kg was above 100 mg/kg.

As to `CCCCc1nc(Cl)c(CC(=O)OC)n1Cc1ccc(NC(=O)c2cc(C)ccc2NS(=O)(=O)C(F)(F)F)cc1` [Example 53A], at AII receptor, the IC50 was found to be 810 nM. In the test on Renal Hypertensive Rats, this molecule had a minimal effective dose at 10 mg/kg above 100 mg/kg and a minimal effective dose at 100 mg/kg above 100 mg/kg.

With `CCCCc1nc(Cl)c(CO)n1Cc1ccc(NC(=O)c2ccccc2NS(=O)(=O)C(F)(F)F)cc1` [Example 53B], the IC50 on AII receptor is 360 nM. Besides, in the test with Renal Hypertensive Rats, the minimal effective dose at 10 mg/kg was below 10 mg/kg.

For the molecule `CCCCc1ncc(CO)n1Cc1ccc(NC(=O)c2ccccc2NS(=O)(=O)C(F)(F)F)cc1` [Example 53C], the IC50 on AII receptor worked out at 210 nM. Besides, the minimal effective dose at 10 mg/kg in the test with Renal Hypertensive Rats was below 10 mg/kg.

For `CCCCCCCc1nc(Cl)c(CO)n1Cc1ccc(NC(=O)c2ccccc2NS(=O)(=O)C(F)(F)F)cc1` [Example 54, 4-Chloro-2-heptyl-5-hydroxymethyl-1-[4-((N-trifluoromethanesulfonyl)-anthranilamido)benzyl]imidazole], the IC50 on AII receptor was determined as 7200 nM. The molecule further displayed a minimal effective dose at 10 mg/kg in the test on Renal Hypertensive Rats below 10 mg/kg.

Turning to `COCCc1nc(Cl)c(CO)n1Cc1ccc(NC(=O)c2ccccc2C(=O)O)cc1` [Example 55, 1-[4-(2-Carboxybenzamido)-benzyl]-4-chloro-5-hydroxymethyl-2-(2-methoxyethyl)imidazole], on AII receptor, the IC50 was found to be 930 nM. In the test with Renal Hypertensive Rats, this molecule displayed a minimal effective dose at 10 mg/kg below 10 mg/kg and a minimal effective dose at 100 mg/kg above 100 mg/kg.

Consider `CCc1nccn1Cc1ccc(NC(=O)c2ccccc2NS(=O)(=O)C(F)(F)F)cc1` [Example 57], for which the IC50 on AII receptor is 4900 nM. In the test on Renal Hypertensive Rats, this molecule registered a minimal effective dose at 10 mg/kg below 10 mg/kg and a minimal effective dose at 100 mg/kg above 100 mg/kg.

For `CC(C)c1nccn1Cc1ccc(NC(=O)c2ccccc2NS(=O)(=O)C(F)(F)F)cc1` [Example 58], the IC50 at AII receptor stood at 8300 nM. In the test with Renal Hypertensive Rats, this molecule came in with a minimal effective dose at 10 mg/kg below 10 mg/kg and a minimal effective dose at 100 mg/kg above 100 mg/kg.

With `CCCCc1nccn1Cc1ccc(NC(=O)c2ccccc2NS(=O)(=O)C(F)(F)F)cc1` [Example 59], the IC50 at AII receptor amounted to 3000 nM. In the test with Renal Hypertensive Rats, the minimal effective dose at 10 mg/kg was above 100 mg/kg and the minimal effective dose at 100 mg/kg is above 100 mg/kg.

Take `CCCc1nccn1Cc1ccc(NC(=O)c2ccccc2C(=O)O)cc1` [Example 63]: at AII receptor (tested as sodium salt), the IC50 is 3700 nM. In addition, the minimal effective dose at 100 mg/kg in the test on Renal Hypertensive Rats (tested as sodium salt) is above 100 mg/kg.

With `CCCCc1nccn1Cc1ccc(NC(=O)c2ccccc2C(=O)O)cc1` [Example 64], at AII receptor, the IC50 turned out to be 620 nM. In the test on Renal Hypertensive Rats, this molecule displayed a minimal effective dose at 10 mg/kg below 10 mg/kg and a minimal effective dose at 100 mg/kg above 100 mg/kg.

For `CCCCCc1nccn1Cc1ccc(NC(=O)c2ccccc2C(=O)O)cc1` [Example 65], the IC50 at AII receptor came to 240 nM. In the test on Renal Hypertensive Rats, this molecule had a minimal effective dose at 10 mg/kg below 10 mg/kg and a minimal effective dose at 100 mg/kg above 100 mg/kg.

Consider `CCCCCCc1nccn1Cc1ccc(NC(=O)c2ccccc2C(=O)O)cc1` [Example 66], for which, on AII receptor, the IC50 is 350 nM. In the test on Renal Hypertensive Rats, this molecule displayed a minimal effective dose at 10 mg/kg below 10 mg/kg and a minimal effective dose at 100 mg/kg above 100 mg/kg.

As for `CCCCCCCc1nccn1Cc1ccc(NC(=O)c2ccccc2C(=O)O)cc1` [Example 67], the IC50 at AII receptor worked out at 1100 nM. Further, in the test on Renal Hypertensive Rats, the minimal effective dose at 10 mg/kg is below 10 mg/kg and the minimal effective dose at 100 mg/kg is above 100 mg/kg.

For `COc1ccc(Cc2nccn2Cc2ccc(NC(=O)c3ccccc3C(=O)O)cc2)cc1` [Example 70], the half-inhibitory concentration (IC50) at AII receptor was 2500 nM. In the test on Renal Hypertensive Rats, this molecule registered a minimal effective dose at 10 mg/kg below 10 mg/kg and a minimal effective dose at 100 mg/kg above 100 mg/kg.

For the molecule `CSc1ncc(CO)n1Cc1ccc(NC(=O)c2ccccc2C(=O)O)cc1` [Example 72, 1-[4-(2-Carboxybenzamido)-benzyl]-5-hydroxymethyl-2-(methylthio)-imidazole], at AII receptor, the IC50 was 6500 nM. In addition, in the test on Renal Hypertensive Rats, the minimal effective dose at 10 mg/kg was below 10 mg/kg and the minimal effective dose at 100 mg/kg is above 100 mg/kg.

As for `CCCCc1nc(C#N)c(C#N)n1Cc1ccc(NC(=O)c2ccccc2NS(=O)(=O)C(F)(F)F)cc1` [Example 75, 2-Butyl-4,5-dicyano-1-[4-((N-trifluoromethanesulfonyl)anthranilamido)-benzyl]imidazole], on AII receptor (tested as sodium salt), the IC50 was found to be 7600 nM. Besides, in the test with Renal Hypertensive Rats (tested as sodium salt), the minimal effective dose at 10 mg/kg was below 10 mg/kg and the minimal effective dose at 100 mg/kg is below 100 mg/kg.

Turning to `CCCCc1nc(Cl)c(CC(=O)OC)n1Cc1ccc(N(Cc2ccccc2)C(=O)c2ccccc2NS(=O)(=O)C(F)(F)F)cc1` [Example 76, Methyl 2-butyl-1-[4-(N-benzyl-N-(2-(trifluoromethanesulfonamido)benzoyl)-amino)benzyl]-4-chloroimidazole-5-acetate], the IC50 on AII receptor (tested as sodium salt) came out at 2700 nM. Moreover, in the test on Renal Hypertensive Rats (tested as sodium salt), the minimal effective dose at 10 mg/kg is below 10 mg/kg and the minimal effective dose at 100 mg/kg was above 100 mg/kg.

As to `CCCCc1nc(Cl)c(COC)n1Cc1ccc(N(C)C(=O)c2c(Cl)ccc(Cl)c2C(=O)O)cc1` [Example 77, 2-n-Butyl-4-chloro-5-methoxymethyl-1-[4-(N-methyl-2-carboxy-3,6-dichlorobenzamid)benzyl]imidazole], the IC50 at AII receptor (tested as sodium salt) was 5700 nM. In the test on Renal Hypertensive Rats (tested as sodium salt), the minimal effective dose at 10 mg/kg was above 100 mg/kg and the minimal effective dose at 100 mg/kg is above 100 mg/kg.

For the molecule `CCCCc1nc(Cl)c(COC)n1Cc1ccc(C(=O)Nc2ccccc2C(=O)O)cc1` [Example 78], the 50% inhibitory concentration (IC50) at AII receptor (tested as sodium salt) was determined as 8000 nM. Further, in the test on Renal Hypertensive Rats (tested as sodium salt), the minimal effective dose at 10 mg/kg was below 10 mg/kg and the minimal effective dose at 100 mg/kg was below 100 mg/kg.

Regarding `CCCCc1nc(Cl)c(COC)n1Cc1ccc(C(=O)Nc2nnn[nH]2)cc1` [Example 79], the IC50 at AII receptor (tested as sodium salt) was 500 nM. In addition, in the test on Renal Hypertensive Rats (tested as sodium salt), the minimal effective dose at 10 mg/kg is below 10 mg/kg and the minimal effective dose at 100 mg/kg is above 100 mg/kg.

The term IC50 denotes the concentration that gives 50% inhibition. The term minimal effective dose denotes the lowest level tested that produced the effect sought.
